Measured values published in ChEMBL document CHEMBL3507680, “University of Dundee, Gates Library screen for HepG2 cell viability”.

Assay: Human HepG2 cell viability assay in 384 well format
Assay type: toxicity, cell-based
Design: dose 125 nL, time 70.5 hour; concentration not given beside the values
Conditions: HepG2 cells, read-out: Inhibition

| SMILES | cytotoxicity at 70.5 h [%] |
| --- | --- |
| CSCC[C@@H](CO)Nc1nc(-c2ccccn2)nc2c1c(C)nn2C | -0.626 |
| CNC(=O)CN1CC[C@H]2CN(C(=O)c3cccn3C)C[C@H]2C1 | -5.44 |
| N#Cc1ccc(C(=O)N2CCC(Oc3ccc(C#N)cn3)CC2)cc1 | -3.02 |
| CN(C)C(=O)c1n[nH]c2c1CCN(Cc1nccs1)C2 | -4.93 |
| O[C@@]1(CNCCCOc2cccnc2)CCCN2CCCC[C@@H]21 | 5.47 |
| CC(C)NCc1nc(-c2ccc3c(c2)OCO3)c[nH]1 | -11.7 |
| O=C(NCC1CCOC1)N1CCN(Cc2ccc3c(c2)CCO3)CC1 (stereo unspecified) | -4.97 |
| O=C(Nc1cccnc1)NC(CCCO)c1ccccc1 (stereo unspecified) | -16 |
| COc1ccc(S(=O)(=O)NCCCc2ccc(N(C)C)cc2)cc1F | -1.57 |
| O=C(c1cccnc1SCc1ccccc1)N1CCOCC1 | 0.0391 |
| COCC(=O)N1CCN(C(C)C(=O)NC(C)C)CC1 (stereo unspecified) | 5.85 |
| Cc1ccc(CN2CCc3[nH]nc(C(=O)N(C)C)c3C2)s1 | 3.17 |
| CN1CC(=O)N(c2ccsc2)CC12CCN(Cc1cnn(C)c1)C2 (stereo unspecified) | -0.306 |
| CCc1ccc(C(=O)NCCCC2(C3OCCO3)CCOCC2)cc1 | 11.6 |
| Cc1ccc(CN2CCc3nnc(CN4CCCC4=O)n3CC2)o1 | -3.79 |
| COCCNC(=O)NC1(c2ccccc2F)CC1 | -5.87 |
| CCN(CC)C(=O)CN(C)C(=O)c1cc(-c2cccc(Cl)c2)no1 | -15.3 |
| COc1cccc(CN2CCC3(CC2)CCN(C(=O)[C@@H]2CCCO2)C3)c1 | -8.83 |
| Cc1ccsc1C(=O)N1CCC(O)(CN2CCc3ccccc3C2)C1 (stereo unspecified) | -6.62 |
| CCNC(=O)N1C[C@@H]2OCC(=O)N(C)[C@@H]2C1 | 7.93 |
| CNC(=O)c1cc2c(s1)CCN(C(=O)CCC1CCCN(C)C1)C2 (stereo unspecified) | -7.22 |
| CCS(=O)(=O)N1CCC(c2nc(C)c(C)c(N3CCCC3)n2)CC1 | 2.09 |
| CC(=O)N1C[C@@H](c2ccsc2)[C@@H]2CN(Cc3ccccc3C)CC[C@@H]21 | 18.9 |

| SMILES | cytotoxicity at 70.5 h [%] |
| --- | --- |
| O=C(c1c2c(N3CCCC3)ncnc2n2ccccc12)N1CCOCC1 | -5.97 |
| O=C(c1ccc(Cn2cnnn2)cc1)N1CCC(c2ccncc2)CC1 | -3.04 |
| CNS(=O)(=O)CC1CCCN1c1ccccn1 (stereo unspecified) | -4.24 |
| CC1(c2ccccc2)CCC(=O)N(CCN2CCCOC2=O)C1 (stereo unspecified) | -6.79 |
| CNC(=O)N(C)CC1(c2ccc(Br)cc2)CC1 | -3.73 |
| O=C1[C@@H]2CN(c3ncnc4[nH]ccc34)C[C@]2(C(=O)O)CN1CC1CC1 | -9.8 |
| COc1ccc(-c2nnc(SC(C)C(=O)NCC(C)C)[nH]2)c(OC)c1 (stereo unspecified) | 56.9 |
| CC(=O)N1CCOC[C@H](Oc2ccc(C(F)(F)F)cc2)C1 | 1.19 |
| CCc1c(C(=O)O)nnn1-c1ccc(C)cc1C | -17.4 |
| O=C(NCCN1CCCC1)c1cc2c(s1)CCN2c1ncccn1 | -5.02 |
| CN(Cc1ccco1)C(=O)[C@@]12CNC[C@@H]1CN(C1CCCC1)C2 | -23 |
| CN1C(=O)CCCC12CCCN(Cc1cccs1)C2 (stereo unspecified) | -6.68 |
| CSCCC(CO)NC(=O)c1ccc2[nH]/c(=N\S(C)(=O)=O)sc2c1 (stereo unspecified) | -13.7 |
| Cn1nc(CN2CCCC2)c2c1CN(C(=O)c1ccc[nH]1)CC2 | 11.9 |
| CCn1ccnc1C1CCN(c2ncnc3ccsc23)CC1 | 7.55 |
| CC(C)Oc1ccccc1CNC(=O)N1CCC(n2cncn2)CC1 | 26.9 |
| O=C(CN1CCc2cncnc2C1)N1CCc2sccc2C1 | -11 |
| COc1cccc(N2CCN(Cc3ncc[nH]3)CC2=O)c1 | -10.6 |
| Nc1nnc(CCNC(=O)c2cccc(C3CCCNC3)c2)s1 (stereo unspecified) | -10.1 |
| Cc1nn2c(-c3snnc3C)nnc2s1 | 27.8 |
| Cc1cc(NC(=O)NCc2ccccn2)n(C)n1 | -6.19 |
| O=C(CCCN1CCCCC1)N1CCN(C(=O)c2nc[nH]n2)CC1 | -3.03 |
| O=C(CC1CC1)N1CC[C@H]2[C@@H]1CCC(=O)N2c1cccnc1 | -16.4 |

| SMILES | cytotoxicity at 70.5 h [%] |
| --- | --- |
| N#Cc1cccc(OCCN2CCCC2C(=O)Nc2nccs2)c1 (stereo unspecified) | 29 |
| O=C(CN(Cc1cccs1)C1CCS(=O)(=O)C1)NCC1CCCCC1 (stereo unspecified) | -1.81 |
| CCc1noc(C(C)N2CCN(C(=O)CN3CCOCC3)CC2)n1 (stereo unspecified) | 0.684 |
| COc1ccccc1C(=O)N1CC(=O)N(Cc2ccco2)CC(O)C1 (stereo unspecified) | -12.4 |
| O=C(CCc1nc(Cl)n[nH]1)NC1CCCN(CC2CCCCC2)C1 (stereo unspecified) | 0.564 |
| Cc1oc(C(=O)O)cc1S(=O)(=O)Nc1ccc(Cl)c(Cl)c1 | -3.75 |
| Cc1cc(C)n(CC2CN(CC(=O)NC3CCOCC3)CCO2)n1 (stereo unspecified) | 15.9 |
| CCCC(=O)N1CCC2(CC1)CN(Cc1cccc(C)n1)C(=O)CO2 | 0.856 |
| NC(=O)N1CCCN(CC(=O)NCCc2c(F)cccc2F)CC1 | -6.21 |
| c1ccc2oc(CN3CCCC(Cn4cncn4)C3)nc2c1 (stereo unspecified) | -1.69 |
| CCCn1cc(C(=O)NC(C(=O)O)c2ccccc2C(F)(F)F)c(C)n1 (stereo unspecified) | -8.7 |
| O=C(Cc1cccs1)N1C[C@@H]2COC[C@]2(COc2cccnc2)C1 | -1.72 |
| C[C@@H]1CN(CCCOc2ccc(F)cc2)CC[C@@]1(O)C1CCOCC1 | 2.59 |
| CC(=O)N1CCCN(C(=O)c2cnc3n[nH]c(C)c3c2)CC1 | 11.1 |
| CC(C(=O)O)N1CCc2onc(-c3ccc4c(c3)OCO4)c2C1 (stereo unspecified) | -3.84 |
| COc1ccc(OC)c(C(O)CNC(=O)Nc2cccnc2OC)c1 (stereo unspecified) | -6.93 |
| Cc1ccc(S(=O)(=O)NC(=O)c2c(C)noc2C(C)C)cc1C | 0.282 |
| CCCn1cc(NC(=O)c2cccc(CN3CC[C@H](O)C3)c2)nn1 | -11.9 |
| O=C(c1ncccn1)N1C[C@H]2CCC[C@@]2(COCc2cccnc2)C1 | 15.8 |
| O=C(c1ccoc1)N1C[C@H]2CC[C@@]3(N=C(c4ccccc4)NC3=O)[C@H]2C1 | 0.375 |
| COc1c(C2CCCN2C(=O)Cc2c(C)noc2C)c(C)nn1C (stereo unspecified) | 11 |
| COc1ccc(CN2C[C@@H]3CN(Cc4cccnc4)CCO[C@@H]3C2)cc1 | -9.13 |
| Cn1nc2c(cc1=O)CN(Cc1ccc(-n3cccn3)cc1)CC2 | -6.38 |

| SMILES | cytotoxicity at 70.5 h [%] |
| --- | --- |
| Cn1nc(-c2cccs2)cc1[C@H]1CN2CC[C@H]1C[C@@H]2CN | -6.9 |
| C=Cc1ccc(C(=O)N2CCCC(Nc3ccccc3)C2)cc1 (stereo unspecified) | 26.6 |
| Cc1ccc(NC(=O)NCC2CCS(=O)(=O)C2)cc1Cl (stereo unspecified) | 0.575 |
| CC(C)CCN(CCC(C)C)Cc1nc2c(cnn2C)c(=O)[nH]1 | 2.1 |
| COCCN1CC=C(c2cccc(OC)c2)CC1 | 1.42 |
| Cc1cc(F)ccc1OC1(C(=O)O)CCN(Cc2ccncc2)CC1 | -8.64 |
| Cn1nc2c(cc1=O)CN(Cc1nc(-c3ccsc3)no1)CC2 | -19.7 |
| Cc1ccnc(C(NC(=O)c2sc(C)nc2C)C2CC2)n1 (stereo unspecified) | -2.09 |
| CS(=O)(=O)N1CCC(CNC(=O)c2cnccn2)CC1 | 31.3 |
| O=C(O)c1cc(-c2cncnc2)cc(S(=O)(=O)N2CCCCCC2)c1 | -10.5 |
| CS(=O)(=O)c1nnc(NC(=O)CCc2cccs2)[nH]1 | 17.8 |
| CN(C)C(=O)COCc1nnc2n1CCN(Cc1ccsc1)C2 | 0.94 |
| CC(CNC(=O)N1CCN(Cc2ccon2)CC1)Cc1cccs1 (stereo unspecified) | -2.44 |
| CC(C)c1cc2c(O)nc(CSCC(=O)NCc3ccncc3)nc2s1 | -12.9 |
| Cc1cc(CN2C[C@@H]3CN(C(=O)c4ccco4)CCO[C@@H]3C2)no1 | -5.36 |
| CC(N)C(=O)N1CCC(Oc2cccc(C(F)(F)F)c2)CC1 (stereo unspecified) | 11.5 |
| CCOCC(O)CN1CCN(C(=O)C2CCC2)CC1 (stereo unspecified) | -3.91 |
| Cn1cc(Cl)cc1C(=O)N1CCCN(Cc2ccccc2)CC1 | -8.08 |
| FC(F)(F)c1ccc(-c2cc(NC3CCNCC3)nc3[nH]ccc23)nc1 | -7.67 |
| Cc1nn(Cc2ccc(C(=O)NC3CCS(=O)(=O)C3)cc2)c(C)c1Br (stereo unspecified) | 3.3 |
| CCN1CCCC(O)(c2nc(C)c(CCOc3ccc(F)cc3)s2)CC1 (stereo unspecified) | 13.4 |
| CC(C)(C)n1cc(C#N)cc1NC(=O)CCNC(=O)c1ccco1 | 11.3 |
| CN(Cc1nc(-c2ccco2)no1)C1CCCN(c2cccnn2)C1 (stereo unspecified) | -14.4 |

| SMILES | cytotoxicity at 70.5 h [%] |
| --- | --- |
| CC(C)(C)c1nnc(CN2CCn3c(nnc3C3CC3)C2)o1 | -0.488 |
| Cc1cnn(CC2CN(c3ncnc4[nH]ccc34)CCO2)c1 (stereo unspecified) | 1.56 |
| Cc1ccc(CC(=O)N2CCC(Nc3ccc(C)nn3)CC2)cn1 | -1.2 |
| CCC1CCCN(Cc2nc(N)c3ccccc3n2)C1 (stereo unspecified) | 4.3 |
| CCCc1nc(C)c(C(=O)NCCN2CCOCC2)s1 | 21.3 |
| CS(=O)(=O)CCC(=O)NC(c1ccc(F)cc1)C(F)(F)F (stereo unspecified) | -1.59 |
| CCO[C@H]1CN(C(=O)c2ccc3c(c2)OCO3)[C@@H]2COC[C@H]12 | -2.21 |
| CCc1ncc2c(n1)CN(Cc1cccc3c1OCCO3)CC2 | -3.18 |
| CC(O)CN1CCN(Cc2cccc(C#N)c2)CC1 (stereo unspecified) | -4.63 |
| Cc1noc(C2CCC3(CCN(C(=O)C4CCOCC4)CC3)O2)n1 (stereo unspecified) | 2.64 |
| CCN(CC1CCOC1)C(=O)c1ccc(-c2ccsc2)nc1C (stereo unspecified) | -7.65 |
| Cc1noc(C2CN(S(=O)(=O)C3CC3)Cc3ccnn3C2)n1 (stereo unspecified) | 10.2 |
| Cc1ccc(-c2nc(CC(=O)N3CCCC(NC(=O)C(C)C)C3)cs2)o1 (stereo unspecified) | -4.05 |
| Cc1cc(CN2C[C@H]3CC[C@@H]2CN(Cc2c(C)noc2C)C3)ccc1F | -5.96 |
| CC(C)(C)NC(=O)COc1ccc(CNCCOc2ccccn2)cc1 | -2.01 |
| CC1CCN(C(=O)[C@@H]2CC[C@@H]3[C@@H](CCN3c3ncc(F)cn3)O2)CC1 | -2.26 |
| CS(=O)(=O)c1nccn1CCOc1ccc(F)cc1Cl | -2.15 |
| CCOc1cc(C(=O)N2CCCC(c3noc(C(C)C)n3)C2)ccn1 (stereo unspecified) | -3.39 |
| N#Cc1cccc(CN2CCCC2c2ccc[nH]2)c1 (stereo unspecified) | 15.2 |
